Results: patent US20230416196A1, “DIMER OF BIGUANIDINES AND THEIR THERAPEUTIC USES” (INSTITUT CURIE, priority 2020, published 2023)

What was measured:
[1] = Copper-catalyzed oxidation of NADH by H2O2 (cell-free); type: biochemical; details: H2O2 present; FIG. 3C
Protocol: Copper-catalyzed oxidation of NADH. The oxidation kinetics of NADH (N4505, Sigma-Aldrich) was followed by measurement of absorbance at 340 nm using a NanoDrop 2000. Measurements were performed at 26° C. A 10 mM sodium phosphate buffer adjusted to pH=7.2 was used as solvent. Each 500 μL mixture were prepared with NADH (400 μM), imidazole (56750, Sigma-Aldrich, 10 mM), CuSO4 (451657, Sigma-Aldrich, 4 μM), LCC/K2CO3 solution (1:1) (4 μM or 400 μM), metformin/K2CO3 solution (2:1) (J63361, Alfa Aesar, 800 μM), as indicated, and a H2O2 solution (16911, Sigma-Aldrich, 2 mM from an aq. solution 25-35% in H2O2) added at the reaction start time. The concentration of NADH was calculated from the measured absorbance at 340 nm and a molar extinction coefficient of […] L mol^−1 cm^−1.

[2] = test system: inflammatory genes in activated MDM; assay: RNA-seq gene expression in activated MDM; type: cell-based, human; details: LCC-12 10 μM; FIG. 4A-C
Protocol: Cell culture. Peripheral blood samples were collected from distinct healthy donors (Etablissement Français du Sang). Pan monocytes were isolated by negative magnetic sorting using microbeads according to the manufacturer's instructions (Miltenyi Biotec, 130-096-537), and cultured in RPMI 1640 supplemented with glutamine (Thermo Fisher Scientific, 61870010), 10% fetal bovine serum and exposed to granulocyte-macrophage colony-stimulating factor (GM-CSF, Miltenyi Biotec, 130-093-866, 100 ng/mL) to induce differentiation into macrophages (MDM). […]
RNA-seq. […] Sequencing was carried out on a NovaSeq 6000 instrument from Illumina based on a 2×100 cycle mode (paired-end reads, 100 bases). Raw sequencing reads were first checked for quality with Fastqc (0.11.8) and trimmed for adapter sequences with the trimGalore (0.6.2) software. Trimmed reads were then aligned on the human hg38 reference genome using the STAR mapper (2.6.1b), up to the generation of a raw count table per gene (GENCODE annotation v29). […] Raw data from (Fernandes et al., 2016, 7, e00027-16; Gongalves et al., 2020, Nat. Commun. 11, 2282) were downloaded from the NCBI Short Read Archive under records PRJNA528433 and PRJNA290995 and processed as described above. […] Differential expression was assessed with the limma voom framework (v 3.44.3) (Ritchie et al., 2015, Nucleic Acids Res. 43, e47). […]

[3] = test system: inflammatory macrophages (act. MDM); assay: Flow cytometry of CD80 and CD86 cell surface markers in activated MDM (Example 2); type: cell-based, human; details: LCC-12 10 μM; FIG. 4F
Protocol: Cell culture. Peripheral blood samples were collected from distinct healthy donors (Etablissement Français du Sang). Pan monocytes were isolated by negative magnetic sorting using microbeads according to the manufacturer's instructions (Miltenyi Biotec, 130-096-537), and cultured in RPMI 1640 supplemented with glutamine (Thermo Fisher Scientific, 61870010), 10% fetal bovine serum and exposed to granulocyte-macrophage colony-stimulating factor (GM-CSF, Miltenyi Biotec, 130-093-866, 100 ng/mL) to induce differentiation into macrophages (MDM). At day 5 of differentiation, MDM were treated with lipopolysaccharides (LPS, InvivoGen, tlrl-3pelps, 100 ng/mL, 24 h) and interferon-γ (IFNγ, Miltenyi Biotec, 130-096-484, 20 ng/mL, 24 h) to generate activated MDM (act. MDM) and were co-treated with metformin (Met, 1,1-dimethylbiguanid hydrochloride, Alfa Aesar, J63361, 10 mM, 24 h) or LCC-12 (in-house, 10 μM, 24 h) as indicated.
Flow cytometry. […] Macrophages were analyzed with an antibody panel consisting of antibodies against the following cell surface proteins: CD44, CD80, CD86 and TfR1. The data were analyzed with FlowJo software v. […] Flow cytometry analysis of lysosomal iron content: Lysosomal iron was monitored by incubating cells at 37° C. with 5% CO2 in medium containing RhoNox-M (in-house, 1 μM, 1 h), before flow analysis of fluorescence intensity.

mice challenged with LPS = assay: Murine model of LPS-induced severe inflammation; type: in vivo, BALB/c mice; details: LPS 20 mg/kg IP; LCC-12 0.3 mg/kg IP; dexamethasone 10 mg/kg PO as comparator; FIG. 4D
Protocol: Murine model of LPS-induced severe inflammation. Animal work was conducted at Fidelta Ltd according to 2010/63/EU and National legislation regulating the use of laboratory animals in scientific research and for other purposes (Official Gazette 55/13). An Institutional Committee on Animal Research Ethics (CARE-Zg) oversaw that animal-related procedures were not compromising the animal welfare. LPS (Sigma-Aldrich, L2630, 20 mg/kg) was injected intraperitoneally to male BALB/c mice (8 weeks-old). LCC-12 (0.3 mg/kg, IP, n=10) or vehicle (0.9% NaCl, 10 mL/kg, IP, n=10) were injected 2 h prior LPS challenge, then 24 h, 48 h, 72 h and 96 h post challenge. Dexamethasone (10 mg/kg, PO, n=10) was given 1 h prior LPS challenge. Incidence of mortality was monitored every 4 h up to 48 h, then twice daily.

N=C(N)NC(=N)NCCCCCCCCCCCCNC(=N)NC(=N)N [LCC-12, lipophilic copper clamp C12]
rate of NADH oxidation catalyzed by copper(II) [1]: more pronounced effect
expression of inflammatory genes compared to activated MDM [2]: reduced expression of a subset of inflammatory genes
production of inflammatory macrophages according to CD80 and CD86 cell surface markers [3]: interfered with the production of inflammatory macrophages
survival of mice challenged with LPS (mice challenged with LPS): increased the survival of mice challenged with LPS to a similar extent than dexamethasone
